From patent US20240082414A1, “HUMAN TUMOR NECROSIS FACTOR ALPHA ANTIBODY GLUCOCORTICOID CONJUGATES” (Eli Lilly and Company, priority 2022, published 2024)

Test system: anti-drug antibodies against adalimumab
Assay: ACE-Bridge binding to cynomolgus monkey anti-drug antibodies against adalimumab
Conditions: FIG. 3; AP-HIMS from monkeys hyperimmunized with adalimumab; bridging with the labeled test antibody
Description: Example 5a. […] The anti-adalimumab antibodies were detected using a titration of AP-HIMS in an ACE-Bridge assay. The assay was developed following the FDA Guidance on Immunogenicity testing. […] The following day, plates were washed three times with TBST and the captured anti-adalimumab antibodies were acid eluted using 65 μL/well of 300 mM acetic acid (Fisher Scientific, A38-500) for 5 min at room temperature. […] Next, 50 μL of the acid eluted samples were added to the polypropylene plate containing the mixture in neutralizing buffer and the ADA and were allowed to bridge to the labeled antibodies for 1 h at room temperature. MSD Gold 96-well streptavidin plates (Mesoscale, L15SA-1) were washed and blocked with TBS+1% BSA for 1 h at room temperature, then washed, and 80 μL of bridged samples were added to the plate for 1 h. The plates were washed three times with TBST, and 150 μL/well of 2×MSD Buffer (Mesoscale, R92TC-2) was added to the plates. Plates were read on an MSD SQ120 reader to provide the Tier 1 signal expressed as electro chemiluminescent units (ECLU).
The resulting ECLU signal was then plotted as a function of the concentration of AP-HIMS tested.

Substance: adalimumab: other anti-TNFα therapeutic antibody [reference compound]
- maximum ECLU signal: 40000 ECLU
